The values that follow come from patent publication US20070190628A1, “Yeast food composition for fuel ethanol production” (priority 2006, published 2007).

In test [1] the test system is active dry yeast “z”. The experiment in a line: EVOP optimization of phosphorus and sulfur concentrations for fermentation rate in corn mash. It counts as cell-based, Saccharomyces cerevisiae. To be noted: combined with 16 mM urea, 0.049 g/L MgSO4.7H2O and 0.273 mg/L ZnSO4.7H2O. On the procedure:
The Evolution Operation Method (EVOP) described by Box et al, (1969, Evolutionary Operation: A Statistical Method for Process Improvement, John Wiley & Sons, NY, N.Y.) was used to optimize the concentrations of phosphorus and sulfur combined with urea, magnesium and zinc for increasing fermentation rates in corn mash.
Multiple sterile 2-L Celstir® fermentors were each filled with 1 L of corn mash supplemented with 16 mM urea, 0.049 g/L MgSO4.7H2O, and 0.273 mg/L ZnSO4.7H2O. The active dry yeast “z” was used as the inoculum in this study. The EVOP testing was conducted by using the “low” concentration values of phosphorus and sulfur (0.8 g/L (NH4)2HPO4 and 0.16 g/L (NH4)2SO4) from Table 1 as the center points for assessing 4 additional phosphorus and sulphur concentrations around these points for their effects on fermentation rates. If the response of a particular point around the center point was significant, then this particular point became the new center point and 4 new concentration values would be examined as described by Box et al (1969). […] Fermentation rates were determined by repeated sampling and sample processing at specific time intervals as described in Example 1.

Test [2] has as its system active dry yeast “z”. The experiment in a line: Individual nutritive elements added to normal gravity corn mash: fermentation rate and viable cell numbers. It counts as cell-based, Saccharomyces cerevisiae. On the procedure: Normal gravity corn mash was prepared using ground #2 yellow dent corn obtained from Commercial Alcohols Inc. (275 Bloomfield Road, Chatham, Ontario, Canada N7M 5J5). […] One part by weight of ground corn was dispersed into three parts of 50° C., sterile dH2O containing 1 mM CaCl2.2H2O. To minimize the development of excessive viscosity during gelatinization, 1.25 mL of high temperature (HT-2X) α-amylase such as was supplied by Alltech Inc. in Nicholasville, Ky., USA (HT-2X α-amylase is no longer available from Alltech), was added per litre of mash as the ground corn was dispersed. It should be noted that if Ca-independent alpha amylases are used such as Termamyl® SC supplied by Novozymes North America in Franklinton, N.C., USA, then the 1 mM CaCl2.2H2O is not required. Following the addition of the ground corn and a five-minute mixing period to produce a homogenous mixture, the temperature was increased until the mash reached 94° C. where it was held at this temperature for 60 min with continued stirring. The temperature of the gelatinized starch was then reduced to 80° C. and liquefied by a second dose of HT-2X αx-amylase (1.25 mL/L) with continued stirring for 30 min. Sterile Celstir® (Wheaton Scientific, Millville, N.J.) fermentor vessels were filled with 1 L aliquots of this mash. To each fermentor vessel, filter-sterilized (25 mm, 0.2 μm Acrodisc® syringe filter, Pall Corporation, Ann Arbor, Mich.) urea (Fisher Scientific, Co., NJ), was added to achieve a final concentration of 8 mM. Cold-sterilization of the mash was assured by the addition of 100 μL of diethyl pyrocarbonate (DEPC, Sigma Chemical Co.) per litre of mash mixing the mash mechanically (IKA-Labortechnik, Staufen, Germany) for 5-10 min followed by cooling the fermentor vessels at 4° C. cold room for ˜72 hrs. The fermentor vessels were then removed from the cold room, connected to 30° C. water bath circulators and mixed. Glucoamylase in the form of Allcholase II 400 supplied by Alltech Inc. was then added (1.5 mL/L mash) 30 min prior to yeast inoculation to initiate saccharification of the dextrins formed during gelatinization and liquefaction (it should be noted that Allcholase II 400 is no longer available and any glucoamylase may be used). The mash thus prepared contained 19-20 g of dissolved solids/100 mL of mash as determined by a digital density meter analyzer (model DMA-45, Anton Paar KG, Graz, Austria) maintained at 20° C.
Eleven grams of a commercially available active dry yeast, designated as “z”, were rehydrated by dispersal in 99 mL of preheated 38° C., 0.1% (w/v) sterile water and incubation for 20 min with periodic shaking in a 38° C. water bath. Fermentor vessels containing normal density corn mash were prepared as described above and inoculated with sufficient active yeast to provide an initial viable cell count of 1×10^7 cells per mL mash. The optimal fermentation temperature for the active dry yeast “z” was determined by conducting fermentations at 30°, 34°, 36°, 38°, and 40° C.
The effects of individual elements on yeast cell biomass production and fermentation in a fermentation feedstock were assessed by separately supplementing of corn mash with nitrogen, phosphorus, magnesium, sulphur and zinc. Nitrogen effects were assessed in corn mashes by the additions of urea to provide final concentrations in the mash of […]. Phosphorus effects were assessed in corn mashes amended with 16 mM urea, by the additions of (NH4)2HPO4 (BDH Chemicals Inc, Toronto, Ont., MW: 132.06) to provide final concentrations of 0, 0.1, 0.2, 0.4, 0.6, and 0.8 g of (NH4)2HPO4/L of mash. Magnesium effects were assessed in corn mashes amended with 16 mM urea, by the additions of MgSO4.7H2O (BDH Chemicals Inc., MW. 246.48) to provide final concentrations of 0, 0.025, 0.049, 0.074, 0.099, 0.148, 0.197 g of MgSO4.7H2O/L of mash. […]

Setting [3] is: (NH4)2HPO4 above 0.4 g/L, mash with 16 mM urea.
[4] abbreviates: ZnSO4.7H2O 0.287 mg/L to 2.30 mg/L (1 to 8 μM), mash with 16 mM urea.

For `N.N.O=S(=O)(O)O` [(NH4)2SO4], the “optimal concentration for supplementing corn mash” value in the test with active dry yeast “z” [1] is 0.32 g/L. The “effect on the rate of fermentation” value in the test with active dry yeast “z” [2] ((NH4)2SO4 above 0.04 g/L, mash with 16 mM urea) was “did not further benefit”. For the same compound, the yeast cell yields in the test with active dry yeast “z” [2] ((NH4)2SO4 above 0.04 g/L, mash with 16 mM urea, increased from 3.3×10^8/mL) stood at 4e+08 mL⁻¹.

Consider `O.O.O.O.O.O.O.O=S(=O)([O-])[O-].[Mg+2]` [MgSO4.7H2O], for which the “effect on fermentation rate” value with active dry yeast “z” [2] (MgSO4.7H2O exceeding 0.074 g/L (0.3 mM Mg2+), mash with 16 mM urea) is reported as “decreased fermentation rate”.

Take `N.N.O=P(O)(O)O` [(NH4)2HPO4]: the “optimal concentration for supplementing corn mash” value with active dry yeast “z” [1] came out at 1.6 g/L. The “effect on rates of dissolved solids utilization” value with active dry yeast “z” [2] (0.1 g/L to 0.4 g/L (NH4)2HPO4, mash with 16 mM urea) was “significantly increased”. Further, in the test on active dry yeast “z” [2] (setting [3]), the “effect on cell yields” value was “decreased cell yields” and the “effect on fermentation rates” value is “decreased fermentation rates”.

Take `O.O.O.O.O.O.O.O=S(=O)([O-])[O-].[Zn+2]` [ZnSO4.7H2O]: in the test on active dry yeast “z” [2] (setting [4]), the “effect on fermentation rates” value is “negative effects” and the “effect on numbers of yeast cells produced” value is given as “negative effects”.
